Experiments:
ezrin = experiment: Immunoblot of ezrin in MCF-7 cells; type: cell-based, human; conditions: 24 hours
Procedure: (§1) In Panel B, immunoprecipitation of E or T treated MCF-7 cells was performed followed by immunoblot analysis.

[1] = system: progesterone receptor (PR) A and B forms; experiment: Immunoblot of PR-A and PR-B in MCF-7 transfectants; type: cell-based, human
Procedure: (§2) Cells grown in 100 mm dishes were starved in phenol red-free (PRF), serum-free MEM (Specialty Media, Phillipsburg, N.J.) for 48 hours, and were then treated for 2 hours with vehicle (ethanol), estrogen (100 nM, 20), or OHT (100 nM). After treatment, cells were rinsed twice with ice-cold phosphate-buffered saline (PBS) and were then lysed immediately with 200 μl of cell lysis buffer (20 mM Tris HCl, pH 7.4, 150 mM NaCl, 1 mM B-glycerophosphate, 1 mM sodium orthovanadate, and 10% glycerol plus 1:100 proteinase inhibitor cocktail III) (Calbiochem, LaJolla, Calif.) per 100 mm tissue culture. The cell lysates were cleared by centrifugation at 16,100×g for 10 minutes at 4° C. Protein concentration was determined with the BCA Protein Assay kit (Pierce, Rockfold, Ill.) according to the manufacturer's directions. Equal amount of cell extracts were resolved under denaturing conditions by electrophoresis in 8-10% polyacrylamide gels containing sodium dodecyl sulfate (SDS-PAGE), and transferred to nitrocellulose membranes by electroblotting (Schleicher & Schuell, Keene, NH). After blocking of the transferred nitrocellulose membrane with TBST (20 mM Tris pH 7.6, 150 mM NaCl, 0.1% Tween-20) supplemented with 5% non-fat milk for 1 hour at room temperature, the membrane was incubated with primary antibodies either for 1 hour at room temperature (anti-ERα, 1:100 dilution; anti-AIB1, 1:100 dilution; anti-ERK2, 1:500 dilution; anti-Cyclin D1,1:500 dilution; anti-PR, C-19, 1:200 dilution; anti-p190, 1:1000 dilution; anti-V5, 1:5000 dilution), or overnight at 4° C. (anti-phospho MAPK, 1:1000 dilution; anti-phosphor-Ser118-ERα; 1:1000 dilution; MAPK p42/44, 1:1000 dilution), incubated with secondary antibodies for 1 hour at room temperature and then developed with Enhanced Chemiluminescence Reagents (Amersham Pharmacia Biotech, Piscataway, N.J.).
As expected with two hours of estrogen treatment, no induction of the two PR isoforms were detected in either the control vector (Con 1 and 2), or in the MKP3-transfected cells (FIG. 11A). […]

[2] = system: T47D cells overexpressing MTA2; experiment: Soft agar growth of MTA2-overexpressing T47D cells; type: cell-based, human; conditions: MTA2.5 and 2.8 clones compared to vector alone transfected cells
Description: Metastasis associated protein 2 (MTA2), also known as PID, is contained in nucleosome remodeling and histone deacetylation (NuRD) complexes. Overexpression of MTA2 into T47D human breast cancer cells (MTA2.5 and 2.8 clones) increases the growth in soft agar in the absence of estrogen (C).

MCF-7-MKP3 xenografts = experiment: Xenograft growth of MCF-7 vector control and MKP3-transfected cells in athymic nude mice; type: in vivo
Procedure: MCF-7 vector control and MKP3-transfected cells were established as xenografts in ovariectomized 5- to 6-week-old BALB/c athymic nude mice (Harlan Sprague Dawley, Madison, Wis.) supplemented with 0.25-mg 21-day-release E2 pellets (Innovative Research, Sarasota, Fla.) by inoculating the mice subcutaneously with 5×10^6 cells, as described previously (Osborne et al., 1995). […] Tumor growth was assessed and tumor volumes were measured as described previously (Osborne et al., 1995). Mice were anesthetized with isoflurane before tumor removal; tumor tissues were kept at […] for later analyses. Animal care was in accordance with institutional guidelines.
To analyze the endocrine sensitivity of the MKP3-overexpressing cells in more detail in vivo, the ability of MCF-7-vector control 1 and MCF-7-MKP3-2 transfectants to form tumors in athymic mice was examined. Xenografts were established in ovariectomized mice supplemented with estrogen for 21 days. […] This was examined by fitting the data in an exponential growth model, and testing whether growth rates were different between the groups; the analyses were done separately for estrogen-treated (FIG. 4C, left panel) and Tam-treated animals (right panel). There was no difference in the estrogen-stimulated growth of the MCF-7-vector control and MKP3-overexpressing cells (P=0.52).

ERα = experiment: Immunoblot of phospho-S118 ERα and total ERα in MCF-7 transfectants; type: cell-based, human; conditions: for total ERα protein level: control transfected and MKP3 overexpressing cells
Procedure: as §2

ERK 1,2 MAPK = experiment: Immunoblot of phospho-MAPK in MCF-7 transfectants; type: cell-based, human; conditions: MKP3-overexpressing MCF-7 cells; 2 hours, 100 nM
Procedure: as §2
MAPK activity is tightly regulated by phosphorylation and dephosphorylation. MKP3 participates in a bidirectional regulatory loop with ERK2 MAPK, whereby ERK2 substrate binding is associated with catalytic activation of MKP3, and activated MKP3 negatively regulates pERK2 (Camps et al., 1998). […] Immunoblot analysis with anti-V5 was used to detect ectopic MKP3 expression in the two MKP3 transfectants (FIG. 5A, top panel). FIGS. 5B and 5C provide quantitation of results in FIG. 5A.

EBP50 = experiment: Immunoblot of EBP50 in MCF-7 cells; type: cell-based, human; conditions: 24 hours
Procedure: as §1

For `C[C@]12CC[C@@H]3c4ccc(O)cc4CC[C@H]3[C@@H]1CC[C@@H]2O` [E2, 17β-Estradiol], the ezrin levels (ezrin) was “similarly induced”, the “induction of the two PR isoforms” value ([1]; two hours of treatment, control vector and MKP3-transfected cells) was “no induction” and the “response of soft agar growth” value [2] was “unresponsive”. For the same molecule, the “tumor growth rate, MKP3-overexpressing versus vector control xenografts” value (MCF-7-MKP3 xenografts; estrogen-treated animals, P=0.52) was “no difference”, the “total ERα protein level” value (ERα) was “Down regulation” and the “levels of pMAPK” value (ERK 1,2 MAPK) was “lowest”. For the same molecule, the EBP50 levels (EBP50) was “similarly induced”.
For `CC/C(=C(\c1ccccc1)c1ccc(OCCN(C)C)cc1)c1ccccc1` [Tam, tamoxifen], the PR-B levels ([1]; two MKP3 transfectants, not observed in control MCF-7 transfectants) was “striking diminution”, the “response of soft agar growth” value [2] was “unresponsive” and the “tumor growth rate, MKP3-expressing versus vector control xenografts” value (MCF-7-MKP3 xenografts; estrogen withdrawal plus tamoxifen citrate 500 μg/animal s.c. 5 days/week, P=0.047) was “significantly increased”. For the same molecule, the “phosphorylation at ERα serine 118” value (ERα; MKP3 transfectants, 2 hours) was “highly induced”, the “total ERα protein level” value (ERα) was “stabilization” and the “levels of pMAPK” value (ERK 1,2 MAPK) was “highest activation of MAPK”.

— patent US20070059720A9 (priority 2004, published 2007)
